Measurements taken from BindingDB's records for doi:10.1021/jm00087a023 (American Cyanamid, 1992).

Test: Inhibition of PAF induced platelet aggregation in rabbit

Compound	IC50 [µM]
CCCCCCCCCCCCCCOc1cccc(OP(=O)([O-])Oc2cccc(C[n+]3c[nH]c4ccccc43)c2)c1OC	1.49
CCCCCCCCCCCCCCCCOCC(COP(=O)(O)Oc1cccc(C[P+](c2ccccc2)(c2ccccc2)c2ccccc2)c1)OC (configuration not stated)	13.6
